Consider 8 molecules from PubChem BioAssay (NCI).

Some test systems named below: KM12 colon; NCI-H522 lung; OVCAR-8 ovarian; MDA-MB-435; PC-3 prostate; NCI-H226 lung; MDA-MB-231 breast; NCI-H460 lung; HCT-15 colon; SN12C renal.
Experiment in all cases: inhibition of tumour cell growth, NCI panel, 48 h

Where “and” joins values, the source holds several entries; their conditions need not be identical. Equal values may be shown once.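 Growth conditions: 96-well plates. Treatment: test compound, 48 hours, 5 concentrations. Analysis: linear interpolation between bracketing concentrations; unreached endpoints set to highest concentration. GI50 is the concentration that inhibits growth by half. Definition used: TGI = concentration required for complete inhibition of growth.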 Bounds are passed on as bounds.

As for `Cc1cccc2c1O/C(=C\c1ccc([N+](=O)[O-])o1)C2=O`, the GI50 in the test on KM12 colon is 1.38 µM; in the test with NCI-H522 lung, 0.222 µM; in the test with OVCAR-8 ovarian, 0.941 µM; in the test on MDA-MB-435, 1.02 µM; with PC-3 prostate, 1.34 µM; in the test with NCI-H226 lung, 1.42 µM. Further, the GI50 in the test with MDA-MB-231 breast was 1.21 µM; in the test with NCI-H460 lung, 0.817 µM; in the test on HCT-15 colon it was 0.274 µM; with SN12C renal it was 1.57 µM. Also, the TGI with KM12 colon was determined as 2.99 µM; in the test on NCI-H522 lung, 0.668 µM; with OVCAR-8 ovarian it was 7.93 µM; in the test with MDA-MB-435 it was 2.46 µM; in the test on PC-3 prostate it was 4.11 µM; in the test on NCI-H226 lung, 3.14 µM. Also, the TGI in the test on MDA-MB-231 breast is 3.61 µM; with NCI-H460 lung, 2.5 µM; with HCT-15 colon, 0.998 µM; in the test on SN12C renal it was 4.25 µM.

As for `CCCCCCCCCCCCCC(=O)C(C)N` (stereo not given), the GI50 with KM12 colon was 3.71 µM; in the test with NCI-H522 lung, 12.7 µM; in the test on OVCAR-8 ovarian, 18.4 µM; in the test on MDA-MB-435, 13.8 µM; in the test on PC-3 prostate it was 2.64 µM; in the test with NCI-H226 lung, 21.8 µM. Also, the GI50 in the test on MDA-MB-231 breast was 2.37 µM; in the test on NCI-H460 lung, 4.16 µM; in the test on HCT-15 colon, 0.917 µM; in the test on SN12C renal, 3.71 µM. Besides, the TGI in the test on KM12 colon amounted to 15.5 µM; in the test with NCI-H522 lung, 27.5 µM; in the test with OVCAR-8 ovarian, 36.1 µM; in the test on MDA-MB-435 it was 28 µM; in the test on PC-3 prostate it was 6.05 µM; with NCI-H226 lung it was 44.3 µM. The TGI amounted to 6.06 µM with MDA-MB-231 breast, 15.3 µM in the test on NCI-H460 lung, 4 µM in the test on HCT-15 colon and 13.3 µM in the test with SN12C renal.

For the molecule `O=C(O)c1cscc1Cc1cccs1`, the TGI with KM12 colon, with NCI-H522 lung, in the test with OVCAR-8 ovarian, with MDA-MB-435, with PC-3 prostate and in the test on NCI-H226 lung was more than 100 µM in each case. Also, the TGI in the test with MDA-MB-231 breast, with NCI-H460 lung, in the test on HCT-15 colon and with SN12C renal was more than 100 µM throughout.

As for `C#Cc1cccc(Oc2ccc(NC(=O)CCl)cc2)c1`, the GI50 was more than 82.5 µM in the test with KM12 colon; 33.5 µM in the test with NCI-H522 lung; 64.3 µM in the test with OVCAR-8 ovarian; more than 82.5 µM with MDA-MB-435; more than 82.5 µM in the test with PC-3 prostate; more than 82.5 µM with NCI-H226 lung. Also, the GI50 in the test on MDA-MB-231 breast is more than 82.5 µM; with NCI-H460 lung, 25.3 µM; in the test on HCT-15 colon it was 6.36 µM; with SN12C renal it was more than 82.5 µM. The TGI in the test with KM12 colon, in the test on NCI-H522 lung, in the test with OVCAR-8 ovarian, in the test on MDA-MB-435, in the test on PC-3 prostate and with NCI-H226 lung was more than 82.5 µM in each case. The TGI in the test with MDA-MB-231 breast, in the test with NCI-H460 lung, in the test on HCT-15 colon and with SN12C renal was more than 82.5 µM each time.

With `COc1ccc(-c2nnc(N3CCN(C(=O)CN4CCN(c5ccc(Cl)cc5)CC4)CC3)nc2-c2ccc(OC)cc2)cc1`, the GI50 with KM12 colon was 8.5 µM; in the test on NCI-H522 lung, 22.4 µM; in the test on OVCAR-8 ovarian, 35.8 µM; in the test with MDA-MB-435, 66.1 µM; with PC-3 prostate it was 9.58 µM; with NCI-H226 lung it was 46.8 µM. In addition, the GI50 with MDA-MB-231 breast is 45.9 µM; in the test with NCI-H460 lung, 14.4 µM; with HCT-15 colon, 15.8 µM; in the test with SN12C renal, 17.8 µM. Besides, the TGI with KM12 colon, in the test with NCI-H522 lung, in the test with OVCAR-8 ovarian, in the test with MDA-MB-435, with PC-3 prostate and with NCI-H226 lung was more than 100 µM in each case. In addition, the TGI in the test with MDA-MB-231 breast, in the test with NCI-H460 lung, with HCT-15 colon and in the test on SN12C renal was more than 100 µM each time.

In the case of `N#C/C(N)=C(\C#N)N=Cc1csc2ccccc12`, the GI50 was more than 100 µM in the test with KM12 colon; 28.9 µM with NCI-H522 lung; 20.8 µM with OVCAR-8 ovarian; 36.2 µM in the test on MDA-MB-435; 47.3 µM in the test on PC-3 prostate; 19.4 µM in the test with NCI-H226 lung. Also, the GI50 in the test with MDA-MB-231 breast was 15.2 µM; with NCI-H460 lung it was more than 100 µM; in the test on HCT-15 colon, 71.9 µM; in the test on SN12C renal, 26.9 µM. Moreover, the TGI in the test on KM12 colon is more than 100 µM; with NCI-H522 lung it was more than 100 µM; in the test on OVCAR-8 ovarian, 55.7 µM; in the test on MDA-MB-435 it was more than 100 µM; with PC-3 prostate, more than 100 µM; in the test on NCI-H226 lung it was 76.3 µM. In addition, the TGI with MDA-MB-231 breast is 41 µM; with NCI-H460 lung it was more than 100 µM; with HCT-15 colon, more than 100 µM; in the test on SN12C renal, more than 100 µM.

For `CC1SC(c2c(Cl)cccc2Cl)N(NC(=O)C(O)c2ccccc2)C1=O` (stereo not given), the GI50 with KM12 colon was 44.1 µM; in the test with NCI-H522 lung, 60.9 µM; with OVCAR-8 ovarian, more than 100 µM; with MDA-MB-435 it was 43.2 µM; in the test with PC-3 prostate, 39.7 µM; in the test with NCI-H226 lung, more than 100 µM. In addition, the GI50 in the test with MDA-MB-231 breast was 31.6 µM; with NCI-H460 lung, more than 100 µM; with HCT-15 colon, 47.3 µM; in the test with SN12C renal it was more than 100 µM. The TGI in the test with KM12 colon, in the test on NCI-H522 lung, in the test on OVCAR-8 ovarian, in the test with MDA-MB-435, in the test with PC-3 prostate and in the test with NCI-H226 lung was more than 100 µM in each case. In addition, the TGI in the test on MDA-MB-231 breast, in the test on NCI-H460 lung, in the test on HCT-15 colon and in the test on SN12C renal was more than 100 µM throughout.

As for `O=C1C(=O)c2ccccc2C(O)=C1CC=C(Cl)Cl`, the GI50 in the test on KM12 colon was 11.7 µM and 5.17 µM; in the test with NCI-H522 lung, 8.02 µM; with OVCAR-8 ovarian, 6.49 µM and 4.81 µM; in the test with MDA-MB-435, 5.7 µM and 7.43 µM; in the test with PC-3 prostate, 4.7 µM and 2.85 µM; in the test on NCI-H226 lung, 8.26 µM and 24.2 µM and 14.4 µM. The GI50 in the test on MDA-MB-231 breast was 3.59 µM; in the test on NCI-H460 lung it was 1.66 µM; with HCT-15 colon it was 0.424 µM; in the test on SN12C renal it was 5.92 µM. Further, the TGI in the test on KM12 colon was > 82.8 µM and 161 µM and > 100 µM; with NCI-H522 lung, 40.5 µM and 117 µM and 89.8 µM; in the test with OVCAR-8 ovarian it was 206 µM and > 100 µM; in the test with MDA-MB-435, 29.2 µM and 109 µM and 80.6 µM; in the test on PC-3 prostate, > 48.8 µM and 134 µM and 72.9 µM; in the test with NCI-H226 lung, 39.9 µM and 135 µM and 91.1 µM. The TGI in the test on MDA-MB-231 breast was > 52.8 µM and 119 µM and 56.2 µM; with NCI-H460 lung, 49.8 µM and 79.1 µM and 25.5 µM; with HCT-15 colon, 51.7 µM and 159 µM and > 100 µM; in the test with SN12C renal, > 86.9 µM and 137 µM and > 100 µM.
